This is an account of results in PubChem BioAssay AID330 (DTP/NCI, 2004).

For this assay, the system named is P388 leukemia ip, CD2F1 mice, survival T/C. Kind of assay: NCI In Vivo Anticancer Drug Screen. Data for tumor model P388 Leukemia (intraperitoneal) in CD2F1 (CDF1) mice. The conditions noted are these: endpoint: median survival time, higher = longer survival. Put shortly: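 Mice carrying the transplanted tumor received test compound or vehicle. Survival was recorded in each group, and the value is the treated-group measurement divided by that of the vehicle-treated control group.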

Setting [1] is: dose: 100.0 mg/kg/injection, schedule: Q04DX003 (ip), vehicle: saline.
The mark [2] stands for this setting: dose: 50.0 mg/kg/injection, schedule: Q01DX005 (ip), vehicle: saline with Tween-80.
Setting [3] is: dose: 100.0 mg/kg/injection, schedule: Q01DX005 (ip), vehicle: saline with Tween-80.
The mark [4] stands for this setting: dose: 200.0 mg/kg/injection, schedule: Q01DX005 (ip), vehicle: saline with Tween-80.
Setting [5] is: dose: 50.0 mg/kg/injection, schedule: Q01DX009 (ip), vehicle: saline.
[6] abbreviates: dose: 100.0 mg/kg/injection, schedule: Q01DX009 (ip), vehicle: saline.
Setting [7] is: dose: 200.0 mg/kg/injection, schedule: Q01DX009 (ip), vehicle: saline.
[8] abbreviates: dose: 25.0 mg/kg/injection, schedule: Q01DX009 (ip), vehicle: Klucel (hydroxypropylcellulose) (HPC).
The mark [9] stands for this setting: dose: 50.0 mg/kg/injection, schedule: Q01DX009 (ip), vehicle: Klucel (hydroxypropylcellulose) (HPC).
The mark [10] stands for this setting: dose: 100.0 mg/kg/injection, schedule: Q01DX009 (ip), vehicle: Klucel (hydroxypropylcellulose) (HPC).
Where [11] appears, read: dose: 200.0 mg/kg/injection, schedule: Q01DX009 (ip), vehicle: Klucel (hydroxypropylcellulose) (HPC).
[12] abbreviates: dose: 50.0 mg/kg/injection, schedule: Q01DX005 (ip), vehicle: Klucel (hydroxypropylcellulose) (HPC).
Where [13] appears, read: dose: 100.0 mg/kg/injection, schedule: Q01DX005 (ip), vehicle: Klucel (hydroxypropylcellulose) (HPC).
Where [14] appears, read: dose: 60.0 mg/kg/injection, schedule: Q01DX005 (ip), vehicle: saline with Tween-80.
Where [15] appears, read: dose: 120.0 mg/kg/injection, schedule: Q01DX005 (ip), vehicle: saline with Tween-80.
[16] abbreviates: dose: 240.0 mg/kg/injection, schedule: Q01DX005 (ip), vehicle: saline with Tween-80.

“And” between values parts separate entries of the source, which are not always exact repeats. Identical values can stand only once. Toxic doses and inconclusive results are not listed.

As to `O=C1CNC(=O)N1CCO`, the T/C reads like this: (dose: 12.5 mg/kg/injection, schedule: Q04DX003 (ip), vehicle: saline) 99 % of control; (dose: 25.0 mg/kg/injection, schedule: Q04DX003 (ip), vehicle: saline) 106 % of control; (dose: 50.0 mg/kg/injection, schedule: Q04DX003 (ip), vehicle: saline) 98 % of control; under setting [1], 99 % of control; (dose: 200.0 mg/kg/injection, schedule: Q04DX003 (ip), vehicle: saline) 104 % of control; (dose: 400.0 mg/kg/injection, schedule: Q04DX003 (ip), vehicle: saline) 104 % of control.
For the compound `C(=C\c1cc2cc(C3=NCCN3)ccc2o1)/c1ccc(C2=NCCN2)cc1`, the T/C under setting [1] is 153 % of control and 157 % of control.
On to `C1=C2OCOC2=CC2Cc3cc4c(cc3/C=C3\CC5=C(C=C3/C=C/12)OCO5)OCO4` (configuration not stated), for which the T/C reads like this: under setting [2], 92 % of control; under setting [3], 93 % of control; under setting [4], 98 % of control.
`CCN=NNc1ccc(C#N)cc1`: the T/C (dose: 6.25 mg/kg/injection, schedule: Q01DX009 (ip), vehicle: distilled water + Tween-80) was 104 % of control; the T/C (dose: 12.5 mg/kg/injection, schedule: Q01DX009 (ip), vehicle: distilled water + Tween-80) was 109 % of control and 91 % of control; the T/C (dose: 25.0 mg/kg/injection, schedule: Q01DX009 (ip), vehicle: distilled water + Tween-80) was 119 % of control and 97 % of control; the T/C (dose: 50.0 mg/kg/injection, schedule: Q01DX009 (ip), vehicle: distilled water + Tween-80) is 100 % of control and 123 % of control; the T/C (dose: 100.0 mg/kg/injection, schedule: Q01DX009 (ip), vehicle: distilled water + Tween-80) was 106 % of control.
`C=CCC(C(=O)OC)c1ccccc1` (configuration not stated): the T/C by setting is: (dose: 0.4 mg/kg/injection, schedule: Q01DX009 (ip), vehicle: saline with Tween-80) 99 % of control; (dose: 0.8 mg/kg/injection, schedule: Q01DX009 (ip), vehicle: saline with Tween-80) 98 % of control; (dose: 1.6 mg/kg/injection, schedule: Q01DX009 (ip), vehicle: saline with Tween-80) 104 % of control.
On to `CC1(C)OCC(C2NC2C2COC(C)(C)O2)O1` (configuration not stated), for which the T/C runs as follows: under setting [5], 108 % of control; under setting [6], 110 % of control; under setting [7], 104 % of control.
Regarding `CCOCC(=O)OCC`, the T/C was 105 % of control under setting [6]; 101 % of control under setting [7]; 102 % of control (dose: 400.0 mg/kg/injection, schedule: Q01DX009 (ip), vehicle: saline).
Take `CCCCCCCCCCCCCCCCCCN(CCCCCCCCCCCCCCCCCC)c1ccc(/C=C/c2ccnc3ccccc23)cc1`: the T/C was 104 % of control under setting [8], 95 % of control under setting [9], 95 % of control under setting [10] and 104 % of control under setting [11].
Turning to `CC(=O)O.CC(=O)[O-].CC(=O)[O-].[Co+3].[NH-]CC[NH-].[NH-]CC[NH-]`, the T/C under setting [6] was 100 % of control.
As for `CSCCCCCCCCCCSC`, the T/C under setting [5] was 99 % of control, the T/C under setting [6] is 100 % of control and the T/C under setting [7] was 99 % of control.
In the case of `CC1(Cc2c[nH]c(=O)[nH]c2=O)C(=O)NC(=O)NC1=O`, the T/C by setting is: under setting [9], 105 % of control; under setting [10], 100 % of control; under setting [11], 98 % of control.
For the compound `CCC(O)CC1OC2(CCC1C)CC1OC(=O)/C=C\C(C)(O)C(O)C(C)C(O)C(OC3CC(OC)C(O)C(C)O3)C(O)C(C)(O)CCC/C=C/C3CC(C)COC3(O)CC(O2)C1C` (configuration not stated), the T/C is 100 % of control (dose: 1.0 mg/kg/injection, schedule: Q01DX005 (ip), vehicle: saline + alcohol) and 104 % of control (dose: 2.0 mg/kg/injection, schedule: Q01DX005 (ip), vehicle: saline + alcohol).
For the compound `CC(C)C1CC(O)C(C)C(CN2CCCCC2)C1` (configuration not stated), the T/C is, setting by setting: under setting [12], 105 % of control; under setting [13], 104 % of control.
For the compound `O=c1[nH]c2cc(Cl)ccc2nc1/C=C(\O)c1ccc(O)cc1`, the T/C runs as follows: under setting [14], 102 % of control; under setting [15], 95 % of control; under setting [16], 95 % of control.
As to `c1ccc(Nc2ccc(CN3CCCCC3)cc2)cc1`, the T/C is, setting by setting: (dose: 60.0 mg/kg/injection, schedule: Q01DX005 (ip), vehicle: Klucel (hydroxypropylcellulose) (HPC)) 93 % of control; (dose: 120.0 mg/kg/injection, schedule: Q01DX005 (ip), vehicle: Klucel (hydroxypropylcellulose) (HPC)) 99 % of control; (dose: 240.0 mg/kg/injection, schedule: Q01DX005 (ip), vehicle: Klucel (hydroxypropylcellulose) (HPC)) 87 % of control.
Consider `O=C1CCCCCCCCCC/C1=N/O`, for which the T/C (dose: 50.0 mg/kg/injection, schedule: Q01DX009 (ip), vehicle: saline with Tween-80) was 99 % of control; the T/C (dose: 100.0 mg/kg/injection, schedule: Q01DX009 (ip), vehicle: saline with Tween-80) was 89 % of control; the T/C (dose: 200.0 mg/kg/injection, schedule: Q01DX009 (ip), vehicle: saline with Tween-80) is 96 % of control.
On to `COC1=CP(C)(=S)CC1` (configuration not stated), for which the T/C is, setting by setting: (dose: 100.0 mg/kg/injection, schedule: Q04DX003 (ip), vehicle: Klucel (hydroxypropylcellulose) (HPC)) 112 % of control; (dose: 200.0 mg/kg/injection, schedule: Q04DX003 (ip), vehicle: Klucel (hydroxypropylcellulose) (HPC)) 98 % of control.
Regarding `CC1=C(c2ccco2)C2(c3ccco3)C(C(=O)c3ccccc3)C2(C)C1=O` (configuration not stated), the T/C reads like this: under setting [2], 90 % of control; under setting [3], 90 % of control; under setting [4], 95 % of control.
Consider `C/C1=C/C2OC(=O)C3(C)C2C(CC2(C)OC1=CC2=O)OC3(O)C(C)C` (configuration not stated), for which the T/C was 100 % of control (dose: 10.0 mg/kg/injection, schedule: Q01DX005 (ip), vehicle: saline + alcohol); 102 % of control (dose: 20.0 mg/kg/injection, schedule: Q01DX005 (ip), vehicle: saline + alcohol); 99 % of control (dose: 40.0 mg/kg/injection, schedule: Q01DX005 (ip), vehicle: saline + alcohol); 109 % of control (dose: 80.0 mg/kg/injection, schedule: Q01DX005 (ip), vehicle: saline + alcohol).
In the case of `OCCCCc1nccc2c1[nH]c1ccccc12`, the T/C runs as follows: (dose: 12.5 mg/kg/injection, schedule: Q01DX009 (ip), vehicle: Klucel (hydroxypropylcellulose) (HPC)) 106 % of control; under setting [8], 106 % of control; under setting [9], 104 % of control; under setting [10], 95 % of control.
`O=C1C2CC3OC3CC2C(=O)N1CCN1C(=O)C2CC3OC3CC2C1=O` (configuration not stated): the T/C is, setting by setting: under setting [2], 100 % of control; under setting [3], 104 % of control; under setting [4], 104 % of control.
For `COC1=C(OC)C(=O)C(SCCCCCCC2CCCCC2)=C(C)C1=O`, the T/C reads like this: (dose: 60.0 mg/kg/injection, schedule: Q01DX005 (ip), vehicle: saline + Tween-80 + alcohol) 110 % of control; (dose: 120.0 mg/kg/injection, schedule: Q01DX005 (ip), vehicle: saline + Tween-80 + alcohol) 115 % of control.
As to `CC1=CC(=O)[C@@H](O)[C@]2(C)[C@H]3[C@@H](O)[C@H](O)[C@@](C)(O)[C@@H]4[C@@H](O)C(=O)O[C@H](C[C@@H]12)[C@]34C`, the T/C by setting is: (dose: 1.0 mg/kg/injection, schedule: Q01DX009 (ip), vehicle: saline + alcohol) 99 % of control; (dose: 2.0 mg/kg/injection, schedule: Q01DX009 (ip), vehicle: saline + alcohol) 101 % of control; (dose: 4.0 mg/kg/injection, schedule: Q01DX009 (ip), vehicle: saline + alcohol) 99 % of control; (dose: 8.0 mg/kg/injection, schedule: Q01DX009 (ip), vehicle: saline + alcohol) 99 % of control.
Turning to `O=C(O)c1cc2cc3c(cc2c2ccccc12)OCO3`, the T/C by setting is: under setting [12], 100 % of control; under setting [13], 106 % of control; (dose: 200.0 mg/kg/injection, schedule: Q01DX005 (ip), vehicle: Klucel (hydroxypropylcellulose) (HPC)) 108 % of control.
For `NC1=NS(=O)(=O)c2ccccc21`, the T/C was 101 % of control under setting [2], 106 % of control under setting [3] and 99 % of control under setting [4].
`Cc1c2sc3ccccc3[nH]c2nc2[nH]c3ccccc3sc12`: the T/C is 108 % of control under setting [2], 116 % of control under setting [3] and 108 % of control under setting [4].
For the compound `Cc1cc(=O)c2c(=O)n(-c3ccccc3)[nH]c2[nH]1`, the T/C is, setting by setting: under setting [14], 111 % of control; under setting [15], 109 % of control; under setting [16], 100 % of control.
